Laboratory results as given in US11225469B2, “Inhibitors of phosphoglycerate dehydrogenase (PHGDH) and uses thereof” (Whitehead Institute for Biomedical Research, priority 2015, dated 2022).

The molecules below were run against PHGDH (Homo sapiens (Human), UniProt O43175) (assay: PHGDH inhibition, coupled assay with PSAT1/PSPH and diaphorase/resazurin readout). Details: Table E9; mixture with PSAT1, PSPH; diaphorase/resazurin reporter.
Chain of PHGDH (O43175 whole entry): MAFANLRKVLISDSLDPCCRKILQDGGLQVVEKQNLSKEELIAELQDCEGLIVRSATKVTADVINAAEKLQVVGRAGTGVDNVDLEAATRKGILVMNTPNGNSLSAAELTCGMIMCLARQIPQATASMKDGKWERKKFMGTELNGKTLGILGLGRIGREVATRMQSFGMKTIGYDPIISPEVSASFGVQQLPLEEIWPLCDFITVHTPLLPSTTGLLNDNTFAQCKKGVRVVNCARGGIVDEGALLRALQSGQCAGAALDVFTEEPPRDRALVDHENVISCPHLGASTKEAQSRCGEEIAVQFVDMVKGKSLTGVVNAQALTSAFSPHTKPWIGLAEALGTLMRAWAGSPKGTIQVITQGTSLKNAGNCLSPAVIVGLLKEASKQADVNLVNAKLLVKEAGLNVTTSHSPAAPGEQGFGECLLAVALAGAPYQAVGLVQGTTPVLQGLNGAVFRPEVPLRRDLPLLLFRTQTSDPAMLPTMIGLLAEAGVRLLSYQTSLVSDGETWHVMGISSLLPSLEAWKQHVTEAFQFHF
Assay type: biochemical
Method: Compounds of the invention were assayed for inhibition of the activity phosphoglycerate dehydrogenase (PHGDH). The compounds were assayed in a mixture comprising PHGDH, PSAT1, PSPH, NADH, and glutamate. Diaphorase and resazurin were used as a fluorescent reporter system.
In this endogenous pathway coupled assay, the production of NADH by PHGDH was measured through the diaphorasemediated reduction of resazurin (See, e.g., Chakraborty, S., Sakka, M., Kimura, T. & Sakka, K. “Characterization of a dihydrolipoyl dehydrogenase having diaphorase activity of Clostridium kluyveri.” BioscL Biotechnol. Biochem. 72, 982-988 (2008)).
PHGDH assay buffer contained 50 mM TEA pH 8.0, 10 mM MgCl2, 0.05% BSA, and 0.01% Tween-20. PHGDH enzyme buffer consisted of assay buffer with 20 nM PHGDH and 0.2 mg/mL diaphorase. PHGDH substrate buffer contained 0.3 mM NAD 1.25 mM glutamate, 0.1 mM 3-phosphoglycerate, 0.2 mM resazurin, 1 μM PSAT1, and 1 μM PSPH. qHTS was performed in 1536-well plates dispensed with a BioRAPTR FRD. Each well contained equal volumes of substrate buffer and assay buffer. Plates were read at 0 minutes and 20 minutes at room temperature with a ViewLux uHTS Microplate Imager (PerkinElmer). Follow-up assays were performed in black 384-well plates (Greiner) in 20 μL of enzyme buffer to which compounds were added in dose-response with an HP D300 digital dispenser (Hewlett-Packard), followed by addition of 20 μL of substrate buffer. Plates were incubated at room temperature (25° C.) and read at 0 and 20 minutes with a Spectramax M5 plate reader (Molecular Devices) in fluorescence intensity mode with a λex=550 nm and λem=600 nm (emission cutoff=590 nm).
`Cc1cc(C)nc(Nc2nnc(N3CCN(c4cccc(C(F)(F)F)c4)CC3)s2)c1` [Compound 125] was tested, and the IC50 was no less than 20 µM. In the case of `Cc1cc(C)nc(NC(=S)N2CCN(c3ccc(Cl)nn3)CC2)c1` [Compound 165], the IC50 is reported as no less than 20 µM. For `Cc1cc(C)nc(NC(=S)N2CCN(c3ncccc3C(F)(F)F)CC2)c1` [Compound 113], the IC50 was 10 to 20 µM. `OCc1ccnc(NC(=S)N2CCN(c3cccc(C(F)(F)F)c3)CC2)c1` [Compound 27] gave an IC50 of no less than 20 µM. `CCN1CCN(C(=S)c2ccc(O)cc2)CC1` [Compound 15] showed an IC50 of no less than 20 µM. For `Cc1cc(C)nc(NC(=S)N2CCN(c3cc(Cl)cc(Cl)n3)CC2)c1` [Compound 207], the IC50 was no less than 20 µM. Molecule `Cc1cc(C)nc(NC(=S)N2CCN(c3cc(C(F)(F)F)cc(C(F)(F)F)c3)CC2)c1` [Compound 64] has an IC50 of 5 to 10 µM. For `COc1cc(NC(=S)N2CCN(c3cccc(C(F)(F)F)c3)CC2)nc2ccccc12` [Compound 130], the IC50 was 10 to 20 µM. `COc1ccnc(NC(=S)N2CCN(c3ncc(C(F)(F)F)cc3Cl)CC2)c1` [Compound 185] gave an IC50 of 5 to 10 µM. `Cc1ccnc(NC(=S)N2CCC(Nc3cccc(C(F)(F)F)c3)CC2)c1` [Compound 56] gave an IC50 of 5 to 10 µM. For `FC(F)(F)c1cccc(N2CCN(C(=S)Nc3nccc4cccnc34)CC2)c1` [Compound 204], the IC50 was 10 to 20 µM. With `N=C(NC(=S)N1CCN(c2cccc(C(F)(F)F)c2)CC1)c1ccccn1` [Compound 238] the IC50 was no less than 20 µM. Molecule `Cc1cc(C)nc(NC(=S)N2CCN(Cc3ccc(Br)cc3)CC2)c1` [Compound 281] has an IC50 of 10 to 20 µM. With `Cc1cc(C)nc(NC(=S)N2CCN(c3ccc([N+](=O)[O-])cc3Cl)CC2)c1` [Compound 217] the IC50 was 10 to 20 µM. In the case of `Cc1ccnc(NC(=S)N2CCN(c3ncc(C(F)(F)F)cc3Cl)CC2)c1` [Compound 176], the IC50 is reported as 5 to 10 µM. For `Cc1cc(C)nc(NC(=S)N2CCN(c3cc(Cl)cc(Cl)c3)CC2)c1` [Compound 65], the IC50 was 5 to 10 µM. `Cc1cc(C)nc(NC(=S)N2CCN(c3ncc(Cl)cc3Cl)CC2)c1` [Compound 81] gave an IC50 of 5 to 10 µM. Molecule `COc1cccc(NC(=S)N2CCN(c3ccc4ccccc4n3)CC2)n1` [Compound 196] has an IC50 of no less than 20 µM. In the case of `Cc1cc(C)nc(NC(=S)N2CCN(c3ccc4nonc4c3)CC2)c1` [Compound 159], the IC50 is reported as no less than 20 µM. For `Cc1cc(C)nc(NC(=S)N2CCN(c3ccc(C(F)(F)F)cc3Cl)CC2)c1` [Compound 212], the IC50 was 5 to 10 µM. In the case of `Cc1cc(C)nc(NC(=S)N2CCC(C(=O)N3CCCCC3)CC2)c1` [Compound 260], the IC50 is reported as no less than 20 µM. `Cc1cc(C)nc(NC(=S)N2CCN(Cc3ccc(C(F)(F)F)cc3)C(CO)C2)c1` (stereo not shown) [Compound 294] was tested, and the IC50 was 10 to 20 µM. With `Cc1cc(C)nc(NC(=S)N2CCN(c3ccc4nsnc4c3)CC2)c1` [Compound 163] the IC50 was 10 to 20 µM. With `Cc1ccnc(NC(=S)NCCNc2cccc(C(F)(F)F)c2)c1` [Compound 22] the IC50 was 5 to 10 µM. Molecule `Cc1cc(C)nc(NC(=S)N2CCC(NC(=O)c3ccc(C(F)(F)F)cc3)CC2)c1` [Compound 266] has an IC50 of less than 5 µM. In the case of `Cc1cc(C)nc(NC(=S)N2CCN(c3ncccn3)CC2)c1` [Compound 80], the IC50 is reported as no less than 20 µM. In the case of `Cc1cc(C)nc(NC(=S)N2CCN(Cc3ccc(Cl)cc3)CC2)c1` [Compound 280], the IC50 is reported as 10 to 20 µM. Work on `Cc1ccnc(NC(=S)NC2CN(c3cccc(C(F)(F)F)c3)C2)c1` [Compound 47] yielded an IC50 of no less than 20 µM. For `Cc1cc(C)nc(NC(=S)N2CCCC(Nc3ccc(C(F)(F)F)cc3)C2)c1` (stereo not shown) [Compound 252], the IC50 was less than 5 µM. Molecule `Cc1cc(C)nc(NC(=S)N2CCN(c3ccsc3)CC2)c1` [Compound 166] has an IC50 of no less than 20 µM. With `Cc1cc(C)nc(NC(=S)N2CCN(c3ccc(Cl)cc3F)CC2)c1` [Compound 219] the IC50 was 5 to 10 µM. Work on `Cc1cc(C)nc(NC(=S)N2CCN(Cc3cccc(Cl)c3)CC2)c1` [Compound 284] yielded an IC50 of 10 to 20 µM. `Cc1cc(C)nc(NC(=S)N2CCN(Cc3c(F)cccc3Cl)CC2)c1` [Compound 94] was tested, and the IC50 was 5 to 10 µM. In the case of `Cc1cc(C)nc(NC(=S)N2CCN(c3cccc(C(=O)O)c3)CC2)c1` [Compound 102], the IC50 is reported as no less than 20 µM. For `Cc1cc(C)nc(NC(=S)N2CCC(CN3CCOCC3)CC2)c1` [Compound 270], the IC50 was no less than 20 µM. `Cc1cc(C)nc(NC(=S)N2CCN(c3ccc(Cl)c(C(F)(F)F)c3)CC2)c1` [Compound 211] was tested, and the IC50 was 10 to 20 µM. `COc1cccc(NC(=S)N2CCN(c3ccc(C(F)(F)F)cc3[N+](=O)[O-])CC2)n1` [Compound 192] showed an IC50 of 10 to 20 µM. `Cc1cc(C)nc(NC(=S)N2CCN(c3cccc(C(F)(F)F)n3)CC2)c1` [Compound 116] gave an IC50 of 5 to 10 µM. `Cc1cc(C)nc(NC(=S)N2CCN(c3nnc(C(F)(F)F)s3)CC2)c1` [Compound 107] was tested, and the IC50 was 10 to 20 µM. Work on `Cc1cc(C)nc(NC(=S)N2CCN(c3ccc(F)c(Cl)c3)CC2)c1` [Compound 215] yielded an IC50 of 5 to 10 µM. `FC(F)(F)c1ccc(N2CCN(C(=S)Nc3ccccn3)CC2)cc1` [Compound 25] gave an IC50 of 5 to 10 µM. With `COc1ccnc(NC(=S)N2CCN(c3cc(C(F)(F)F)cc(C(F)(F)F)c3)CC2)c1` [Compound 179] the IC50 was less than 5 µM. `Cc1ccnc(NC(=S)NC2CCN(c3cccc(C(F)(F)F)c3)CC2)c1` [Compound 50] showed an IC50 of 10 to 20 µM. `Cc1cc(C)nc(NC(=S)N2CCN(c3cccc(Cl)c3Cl)CC2)c1` [Compound 93] was tested, and the IC50 was 5 to 10 µM. `Cc1cc(C)nc(NC(=S)N2CCN(Cc3cccc(F)c3)CC2)c1` [Compound 277] gave an IC50 of 10 to 20 µM. In the case of `Cc1cc(C)nc(NC(=S)N2CCN(c3nccc4ccsc34)CC2)c1` [Compound 156], the IC50 is reported as no less than 20 µM. For `Cc1cc(C)nc(NC(=S)N2CCN(Cc3cccc(OC(F)(F)F)c3)CC2)c1` [Compound 299], the IC50 was less than 5 µM. Work on `Cc1ccnc(NC(=S)N2CCN(c3cc(Cl)cc(Cl)c3)CC2)c1` [Compound 169] yielded an IC50 of 5 to 10 µM. Molecule `Cc1ccnc(NC(=S)N[C@@H]2CCN(c3cccc(C(F)(F)F)c3)C2)c1` [Compound 42] has an IC50 of no less than 20 µM. Work on `Cc1ccc2nc(NC(=S)N3CCN(c4cccc(C(F)(F)F)c4)CC3)[nH]c2c1` [Compound 242] yielded an IC50 of less than 5 µM. For `S=C(Nc1cc(Cl)ccn1)N1CCN(c2ccc(Cl)c(Cl)c2)CC1` [Compound 200], the IC50 was 10 to 20 µM. `CC(=O)N1CCN(C(=S)Nc2cc(C)ccn2)CC1` [Compound 18] was tested, and the IC50 was no less than 20 µM. Molecule `Cc1cc(NC(=S)N2CCN(c3cccc(C(F)(F)F)c3)CC2)nc2ccccc12` [Compound 127] has an IC50 of no less than 20 µM. `Cc1cc(C)nc(NC(=S)N2CCN(c3cnc4nccn4c3)CC2)c1` [Compound 160] showed an IC50 of no less than 20 µM. With `Cc1cc(C)nc(NC(=C(C#N)C#N)N2CCN(c3cccc(C(F)(F)F)c3)CC2)c1` [Compound 96] the IC50 was no less than 20 µM. Molecule `Cc1cc(C)nc(NC(=S)N2CCN(c3cccc([S+](C)(=O)[O-])c3)CC2)c1` [Compound 140] has an IC50 of no less than 20 µM. `Cc1cc(C)nc(NC(=S)N2CCN(c3cccc4ccncc34)CC2)c1` [Compound 149] showed an IC50 of 10 to 20 µM. `Nc1nc(NC(=S)N2CCN(c3cccc(C(F)(F)F)c3)CC2)n[nH]1` [Compound 231] gave an IC50 of no less than 20 µM. Molecule `Cc1cc(C)nc(NC(=S)N2CCN(CCN3CCCCC3)CC2)c1` [Compound 256] has an IC50 of no less than 20 µM. In the case of `Cc1cc(C)nc(NC(=S)N2CCN(c3ccc(F)c(F)c3F)CC2)c1` [Compound 208], the IC50 is reported as 10 to 20 µM. For `Cc1ccnc(NC(=S)Nc2cccc(C(F)(F)F)c2)c1` [Compound 46], the IC50 was 10 to 20 µM. Work on `Cc1cc(C)nc(NC(=S)N2CCN(CC(C)(C)C)CC2)c1` [Compound 269] yielded an IC50 of less than 5 µM. For `Cc1cc(C)nc(NC(=S)N2CCN(c3ccccn3)CC2)c1` [Compound 77], the IC50 was no less than 20 µM. In the case of `Cc1cc(C)nc(NC(=S)N2CCN(c3ccc4cn(C)nc4c3)CC2)c1` [Compound 129], the IC50 is reported as no less than 20 µM.
